Test results as given in the Kinase Knowledgebase extract (Sharma et al. 2016).

Assays:
[1] = system: EGFR (Human), P00533 [Assessment of Proliferation in EGFR DelE746_A750 Mutant Expressing HCC827 Cells]
[2] = system: EGFR (Human), P00533 [T790M/L858R]; conditions: nci-h1975
[3] = target: EGFR (human), P00533 [WT]
[4] = system: EGFR (human), P00533 [WT]; conditions: a431

Chain of EGFR (Human), P00533 [Assessment of Proliferation in EGFR DelE746_A750 Mutant Expressing HCC827 Cells] (P00533 whole entry, looked up, stated change not applied): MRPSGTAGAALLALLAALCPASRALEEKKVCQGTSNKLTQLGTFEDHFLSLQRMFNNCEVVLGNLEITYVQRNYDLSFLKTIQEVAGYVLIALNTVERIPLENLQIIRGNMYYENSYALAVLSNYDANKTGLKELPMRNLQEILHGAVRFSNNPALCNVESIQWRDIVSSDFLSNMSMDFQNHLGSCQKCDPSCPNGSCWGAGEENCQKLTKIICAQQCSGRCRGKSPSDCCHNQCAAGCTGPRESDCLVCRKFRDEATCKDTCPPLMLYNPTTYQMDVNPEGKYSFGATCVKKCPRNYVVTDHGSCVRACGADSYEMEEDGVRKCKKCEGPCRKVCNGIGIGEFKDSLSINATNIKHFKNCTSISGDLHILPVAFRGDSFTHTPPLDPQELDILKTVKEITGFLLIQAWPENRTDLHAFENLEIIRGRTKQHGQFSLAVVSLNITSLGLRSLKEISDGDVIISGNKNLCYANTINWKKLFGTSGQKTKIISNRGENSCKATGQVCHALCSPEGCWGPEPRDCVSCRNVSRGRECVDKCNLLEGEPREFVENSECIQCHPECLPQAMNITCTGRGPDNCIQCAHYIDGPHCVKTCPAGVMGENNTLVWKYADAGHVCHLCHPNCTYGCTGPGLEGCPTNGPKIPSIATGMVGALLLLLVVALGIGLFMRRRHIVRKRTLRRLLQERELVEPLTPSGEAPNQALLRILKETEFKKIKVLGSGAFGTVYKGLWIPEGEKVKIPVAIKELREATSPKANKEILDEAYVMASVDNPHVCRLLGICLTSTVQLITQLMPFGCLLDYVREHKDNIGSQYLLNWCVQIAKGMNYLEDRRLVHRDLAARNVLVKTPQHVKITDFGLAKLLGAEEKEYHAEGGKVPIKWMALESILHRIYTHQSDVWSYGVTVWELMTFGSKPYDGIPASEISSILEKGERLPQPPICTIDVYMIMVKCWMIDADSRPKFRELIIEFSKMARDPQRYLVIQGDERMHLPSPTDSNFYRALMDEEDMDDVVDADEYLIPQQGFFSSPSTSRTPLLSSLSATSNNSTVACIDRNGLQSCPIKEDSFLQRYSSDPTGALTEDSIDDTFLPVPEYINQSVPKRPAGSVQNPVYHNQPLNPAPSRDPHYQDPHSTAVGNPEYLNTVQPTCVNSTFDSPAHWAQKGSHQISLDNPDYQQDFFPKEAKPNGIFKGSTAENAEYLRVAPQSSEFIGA
Chain of EGFR (human), P00533 [WT] (P00533 whole entry, looked up): as the sequence (P00533 whole entry, looked up, stated change not applied) above
Chain of EGFR (Human), P00533 [T790M/L858R] (P00533 whole entry T790M/L858R, looked up): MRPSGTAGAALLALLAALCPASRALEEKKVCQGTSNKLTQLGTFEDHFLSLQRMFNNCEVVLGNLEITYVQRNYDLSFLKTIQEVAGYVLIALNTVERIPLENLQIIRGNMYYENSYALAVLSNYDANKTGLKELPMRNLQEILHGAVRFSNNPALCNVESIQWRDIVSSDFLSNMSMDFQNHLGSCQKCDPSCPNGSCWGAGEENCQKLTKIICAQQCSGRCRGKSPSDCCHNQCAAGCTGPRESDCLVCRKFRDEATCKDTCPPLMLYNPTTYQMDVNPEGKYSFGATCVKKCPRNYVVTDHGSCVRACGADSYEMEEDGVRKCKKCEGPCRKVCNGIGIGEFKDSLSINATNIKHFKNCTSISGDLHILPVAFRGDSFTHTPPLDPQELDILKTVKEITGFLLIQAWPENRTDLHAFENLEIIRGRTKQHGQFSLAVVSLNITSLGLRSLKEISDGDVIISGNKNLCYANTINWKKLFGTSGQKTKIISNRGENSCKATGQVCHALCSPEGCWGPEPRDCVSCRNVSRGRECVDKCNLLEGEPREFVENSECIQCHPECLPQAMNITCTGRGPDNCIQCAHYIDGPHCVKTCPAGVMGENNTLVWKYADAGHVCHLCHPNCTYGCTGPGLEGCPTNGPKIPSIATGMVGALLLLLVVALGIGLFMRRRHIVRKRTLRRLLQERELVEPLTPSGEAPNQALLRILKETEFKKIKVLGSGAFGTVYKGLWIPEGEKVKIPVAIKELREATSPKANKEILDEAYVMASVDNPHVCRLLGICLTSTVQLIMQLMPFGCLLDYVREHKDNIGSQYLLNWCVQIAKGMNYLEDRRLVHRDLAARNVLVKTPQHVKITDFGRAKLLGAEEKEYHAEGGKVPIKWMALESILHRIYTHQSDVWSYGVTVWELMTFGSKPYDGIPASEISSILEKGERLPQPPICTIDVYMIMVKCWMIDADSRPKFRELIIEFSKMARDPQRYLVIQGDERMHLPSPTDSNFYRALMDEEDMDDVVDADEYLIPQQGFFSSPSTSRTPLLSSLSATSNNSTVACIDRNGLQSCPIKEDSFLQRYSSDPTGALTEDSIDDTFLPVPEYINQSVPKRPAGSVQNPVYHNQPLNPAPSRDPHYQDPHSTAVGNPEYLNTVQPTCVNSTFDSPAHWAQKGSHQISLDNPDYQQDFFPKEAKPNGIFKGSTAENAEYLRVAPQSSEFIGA

SMILES: C=CC(=O)Nc1cccc(Oc2nc(Nc3ccc(N4CCC(N5CCCCC5)CC4)cc3)nc3ccsc23)c1
- GI50 [1]: ≤ 50 nM
- GI50 [2]: ≤ 50 nM
- IC50 [3]: 100 to 1000 nM

SMILES: C=CC(=O)Nc1cccc(Nc2nc(Nc3ccc(N4CCN(C)CC4)cc3)nc3ccsc23)c1
- GI50 [1]: ≤ 50 nM
- GI50 [2]: ≤ 50 nM
- IC50 [3]: 100 to 1000 nM

SMILES: C=CC(=O)Nc1cccc(Oc2nc(Nc3ccc(C(=O)NC4CCN(C(C)C)CC4)cc3)nc3ccsc23)c1
- GI50 [1]: ≤ 50 nM
- GI50 [2]: ≤ 50 nM
- GI50 [4]: 100 to 1000 nM

SMILES: C=CC(=O)Nc1cccc(Oc2nc(Nc3ccc(N4CCN(C(C)C)CC4)cc3)nc3ccsc23)c1
- GI50 [1]: ≤ 50 nM
- GI50 [2]: ≤ 50 nM
- GI50 [4]: 100 to 1000 nM

SMILES: C=CC(=O)Nc1cccc(Oc2nc(Nc3ccc(N4CCN(C)CC4)cc3)nc3ccoc23)c1
- GI50 [1]: ≤ 50 nM
- GI50 [2]: ≤ 50 nM
- GI50 [4]: 100 to 1000 nM

SMILES: C=CC(=O)Nc1cccc(Oc2nc(Nc3ccc(N4CCN(C5CCCCC5)CC4)cc3)nc3ccsc23)c1
- GI50 [1]: ≤ 50 nM
- GI50 [2]: ≤ 50 nM
- GI50 [4]: 100 to 1000 nM

SMILES: C=CC(=O)Nc1cccc(Oc2nc(Nc3ccc(N4CCN(CC)CC4)cc3)nc3ccsc23)c1
- GI50 [1]: ≤ 50 nM
- GI50 [2]: ≤ 50 nM
- GI50 [4]: 100 to 1000 nM

SMILES: C=CC(=O)Nc1cccc(Oc2nc(Nc3ccc(N4CCN(C(C)C)CC4)cc3)nc3ccoc23)c1
- GI50 [1]: ≤ 50 nM
- GI50 [2]: ≤ 50 nM
- GI50 [4]: 100 to 1000 nM
